From PubChem BioAssay (NCI)
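Growth conditions: 96-well plates. Treatment: test compound, 48 hours, 5 concentrations. Analysis: linear interpolation between bracketing concentrations; unreached endpoints set to highest concentration. GI50: concentration for 50% inhibition of growth. At the TGI there is no net growth.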

What follows are compounds tested on SNB-19 CNS (assay: NCI-60 cell line screen, 48 h).

| SMILES | GI50 [µM] | TGI [µM] |
| --- | --- | --- |
| COc1cc(C(=O)N2CCN(C(=O)c3cc(OC)c(OC)c(OC)c3)C2=S)cc(OC)c1OC | 18.5 | 38.1 |
| O=[N+]([O-])C(=C(Nc1ccccc1)Nc1ccccc1)C(Cl)=C(Cl)Cl | – | 32.9 |
| O=C1NC(N2CCOCC2)=N/C1=C\c1ccco1 | – | > 100 |

Each compound was assayed on MCF7 breast (assay: NCI-60 cell line screen, 48 h).

| SMILES | TGI [µM] | GI50 [µM] |
| --- | --- | --- |
| CN1C(=O)c2ccccc2NC(=O)C12O[C@@H]2c1ccccc1 (stereo partly drawn) | > 100 | – |
| CC1(C)[C@@H]2CC[C@@]1(C)CN(CCC[N+](C)(C)C)C2 | > 100 | – |
| COc1cc(C(=O)N2CCN(C(=O)c3cc(OC)c(OC)c(OC)c3)C2=S)cc(OC)c1OC | 27.6 | 5.23 |
| O=C(CCn1ccnc1[N+](=O)[O-])NCCCn1ccnc1[N+](=O)[O-] | > 100 | – |
| O=[N+]([O-])C(=C(Nc1ccccc1)Nc1ccccc1)C(Cl)=C(Cl)Cl | 34.4 | – |
| O=C1NC(N2CCOCC2)=N/C1=C\c1ccco1 | > 100 | – |

These compounds were tested on SF-295 CNS (assay: NCI-60 cell line screen, 48 h).

| SMILES | TGI [µM] | GI50 [µM] |
| --- | --- | --- |
| CN1C(=O)c2ccccc2NC(=O)C12O[C@@H]2c1ccccc1 (stereo partly drawn) | > 100 | – |
| CC1(C)[C@@H]2CC[C@@]1(C)CN(CCC[N+](C)(C)C)C2 | > 100 | – |
| COc1cc(C(=O)N2CCN(C(=O)c3cc(OC)c(OC)c(OC)c3)C2=S)cc(OC)c1OC | 43.7 | 19 |
| O=C(CCn1ccnc1[N+](=O)[O-])NCCCn1ccnc1[N+](=O)[O-] | > 100 | – |
| O=[N+]([O-])C(=C(Nc1ccccc1)Nc1ccccc1)C(Cl)=C(Cl)Cl | 36.4 | – |
| O=C1NC(N2CCOCC2)=N/C1=C\c1ccco1 | > 100 | – |

The compounds below were run on ACHN renal (assay: NCI-60 cell line screen, 48 h).

| SMILES | TGI [µM] | GI50 [µM] |
| --- | --- | --- |
| CN1C(=O)c2ccccc2NC(=O)C12O[C@@H]2c1ccccc1 (stereo partly drawn) | > 100 | – |
| CC1(C)[C@@H]2CC[C@@]1(C)CN(CCC[N+](C)(C)C)C2 | > 100 | – |
| COc1cc(C(=O)N2CCN(C(=O)c3cc(OC)c(OC)c(OC)c3)C2=S)cc(OC)c1OC | 34.5 | 17.8 |
| O=C(CCn1ccnc1[N+](=O)[O-])NCCCn1ccnc1[N+](=O)[O-] | > 100 | – |
| O=[N+]([O-])C(=C(Nc1ccccc1)Nc1ccccc1)C(Cl)=C(Cl)Cl | 30.7 | – |
| O=C1NC(N2CCOCC2)=N/C1=C\c1ccco1 | > 100 | – |

Each compound was assayed on HOP-92 NSCLC (assay: NCI-60 cell line screen, 48 h).

| SMILES | TGI [µM] | GI50 [µM] |
| --- | --- | --- |
| CN1C(=O)c2ccccc2NC(=O)C12O[C@@H]2c1ccccc1 (stereo partly drawn) | > 100 | – |
| CC1(C)[C@@H]2CC[C@@]1(C)CN(CCC[N+](C)(C)C)C2 | > 100 | – |
| COc1cc(C(=O)N2CCN(C(=O)c3cc(OC)c(OC)c(OC)c3)C2=S)cc(OC)c1OC | 34.3 | 16.1 |
| O=[N+]([O-])C(=C(Nc1ccccc1)Nc1ccccc1)C(Cl)=C(Cl)Cl | 33.9 | – |
| O=C1NC(N2CCOCC2)=N/C1=C\c1ccco1 | > 100 | – |

Each compound was assayed on SNB-75 CNS (assay: NCI-60 cell line screen, 48 h).

| SMILES | TGI [µM] | GI50 [µM] |
| --- | --- | --- |
| CN1C(=O)c2ccccc2NC(=O)C12O[C@@H]2c1ccccc1 (stereo partly drawn) | > 100 | – |
| CC1(C)[C@@H]2CC[C@@]1(C)CN(CCC[N+](C)(C)C)C2 | > 100 | – |
| COc1cc(C(=O)N2CCN(C(=O)c3cc(OC)c(OC)c(OC)c3)C2=S)cc(OC)c1OC | 21.6 | 7.1 |
| O=C(CCn1ccnc1[N+](=O)[O-])NCCCn1ccnc1[N+](=O)[O-] | > 100 | – |
| O=[N+]([O-])C(=C(Nc1ccccc1)Nc1ccccc1)C(Cl)=C(Cl)Cl | 36.5 | – |
| O=C1NC(N2CCOCC2)=N/C1=C\c1ccco1 | > 100 | – |

These compounds were tested on DU-145 prostate (assay: NCI-60 cell line screen, 48 h).

| SMILES | TGI [µM] | GI50 [µM] |
| --- | --- | --- |
| CN1C(=O)c2ccccc2NC(=O)C12O[C@@H]2c1ccccc1 (stereo partly drawn) | > 100 | – |
| CC1(C)[C@@H]2CC[C@@]1(C)CN(CCC[N+](C)(C)C)C2 | > 100 | – |
| COc1cc(C(=O)N2CCN(C(=O)c3cc(OC)c(OC)c(OC)c3)C2=S)cc(OC)c1OC | 27.7 | 13.6 |
| O=C(CCn1ccnc1[N+](=O)[O-])NCCCn1ccnc1[N+](=O)[O-] | > 100 | – |
| O=[N+]([O-])C(=C(Nc1ccccc1)Nc1ccccc1)C(Cl)=C(Cl)Cl | 34.5 | – |
| O=C1NC(N2CCOCC2)=N/C1=C\c1ccco1 | > 100 | – |

The compounds below were run on SK-MEL-5 melanoma (assay: NCI-60 cell line screen, 48 h).

| SMILES | TGI [µM] |
| --- | --- |
| CN1C(=O)c2ccccc2NC(=O)C12O[C@@H]2c1ccccc1 (stereo partly drawn) | > 100 |
| CC1(C)[C@@H]2CC[C@@]1(C)CN(CCC[N+](C)(C)C)C2 | > 100 |
| O=C(CCn1ccnc1[N+](=O)[O-])NCCCn1ccnc1[N+](=O)[O-] | > 100 |
